Assays:
[1] = Pharmacokinetic experiment: serum imatinib and N-desmethyl imatinib by HPLC after oral imatinib with or without apigenin; conditions: for AUC(0–t) / AUC(0–∞) / C max / CLz/F / MRT(0–t) / MRT(0–∞) / T max / Vz/F / t (1/2)z: then single oral 30 mg/kg imatinib, rat serum, n = 5
Description: HPLC system (Agilent 1100) was equipped with quaternary pump, on-line vacuum degasser, autosampler, column compartment, diode array detector, and Agilent Chem Station Rev A.10.02. […] The detection wavelength was 282 nm, and the injection volume was 20.0 μL.
The serum samples were prepared using liquid-liquid extraction technique. A 300 μL aliquot of the serum sample was taken in a 10 mL glass test tube, and on that 20 μL of IS (100 μg/mL) was spiked and 150 μL of sodium hydroxide solution (0.01 moL/L) was added. After vortex mixing for 30 s, 3 mL of ethyl acetate was added, and the mixture was vortexed for 1 min and then centrifuged at 3000 ×g for 5 min. The organic layer was transferred into another 5 mL tube and evaporated to dryness under a stream of nitrogen gas at 40°C. The residue was reconstituted in 100 μL of mobile phase and vortex-mixed for 1 min, and 20 μL of aliquot was injected into the HPLC system for analysis.
Experimental values were expressed as x-±s . Statistical analyses of main pharmacokinetic parameters were performed by Student's unpaired test using SPSS 16.0 software. A value of P < 0.05 was considered to be significant between two groups.

[2] = cited from earlier work
[3] = group B: apigenin 165 mg/kg for 15 days
[4] = group C: single dose apigenin 165 mg/kg
[5] = group D (single dose apigenin 252 mg/kg) vs group B, rats, 30 mg/kg imatinib
[6] = group D: single dose apigenin 252 mg/kg
[7] = short-term 165 mg/kg apigenin (group C), printed comparison with group B, rats, 30 mg/kg imatinib

## Cc1ccc(NC(=O)c2ccc(CN3CCNCC3)cc2)cc1Nc1nccc(-c2cccnc2)n1 [N-desmethyl imatinib]
[1]; group A: control (0.5% CMC-Na)
  AUC(0–t): 5977 ± 1626 ng·h/mL
  AUC(0–∞): 6827 ± 2595 ng·h/mL
  C max: 678 ± 147 ng/mL
  CLz/F: 81.9 ± 29.7 mL/min/kg
  MRT(0–t): 7.085 ± 1.135 h
  MRT(0–∞): 9.718 ± 4.636 h
  T max: 3.6 ± 0.894 h
  Vz/F: 32.8 ± 10.3 L/kg
  t (1/2)z: 5.495 ± 3.92 h
[1]; group B (apigenin 165 mg/kg for 15 days) vs group A (control), rats
  main pharmacokinetic parameters, difference between group A and group B: no great differences
[1]; [3]
  AUC(0–t): 6335 ± 1105 ng·h/mL
  AUC(0–∞): 6672 ± 797 ng·h/mL
  C max: 797 ± 73 ng/mL
  CLz/F: 75.9 ± 9.87 mL/min/kg
  MRT(0–t): 6.573 ± 0.544 h
  MRT(0–∞): 7.504 ± 0.189 h
  T max: 4.0 ± 0.003 h
  Vz/F: 26.8 ± 4.49 L/kg
  t (1/2)z: 4.083 ± 0.436 h
[1]; [4]
  AUC(0–t): 4797 ± 602 ng·h/mL
  AUC(0–∞): 5050 ± 797 ng·h/mL
  C max: 547 ± 91 ng/mL
  CLz/F: 101 ± 16.5 mL/min/kg
  MRT(0–t): 7.227 ± 0.525 h
  MRT(0–∞): 8.397 ± 1.545 h
  T max: 4.0 ± 0.005 h
  Vz/F: 40.7 ± 12.8 L/kg
  t (1/2)z: 4.906 ± 2.093 h
[1]; [5]
  C max reduced compared with group B: 19.82%
  V z/F decrease compared with group B: 62.10%
[1]; [6]
  AUC(0–t): 5262 ± 890 ng·h/mL
  AUC(0–∞): 5545 ± 814 ng·h/mL
  C max: 639 ± 130 ng/mL
  CLz/F: 91.8 ± 13.9 mL/min/kg
  MRT(0–t): 7.326 ± 0.53 h
  MRT(0–∞): 8.679 ± 1.301 h
  T max: 3.8 ± 0.447 h
  Vz/F: 43.5 ± 16.1 L/kg
  t (1/2)z: 5.376 ± 1.495 h
[1]; [7]
  AUC(0−t) increased in comparison with group B: 19.7%
  C max increased in comparison with group B: 19.3%

## O=c1cc(-c2ccc(O)cc2)oc2cc(O)cc(O)c12 [apigenin, reference compound]
[1]; 252 mg/kg vs 165 mg/kg short-time apigenin, rats
  dose dependence of effect on imatinib: not dose dependent
[1]; long-term oral administration of apigenin (165 mg/kg for 15 days), rats
  effect on the metabolism of imatinib in vivo: accelerated
[1]; single dose of apigenin, rats
  effect on the metabolism of imatinib in vivo: inhibited

## Cc1ccc(NC(=O)c2ccc(CN3CCN(C)CC3)cc2)cc1Nc1nccc(-c2cccnc2)n1 [imatinib, reference compound]
[1]; male, Sprague-Dawley, rat, in vivo, 30 mg/kg
  V z/F decreased (printed: in group B): 55.1%
[1]; male, Sprague-Dawley, rat, in vivo, po, 30 mg/kg, AUC(0–t)
  AUC(0-t): 90600 ± 11300 ng·h/mL
[1]; male, Sprague-Dawley, rat, in vivo, po, 30 mg/kg, AUC(0–∞)
  AUC(0-inf): 91000 ± 11600 ng·h/mL
[1]; male, Sprague-Dawley, rat, in vivo, po, 30 mg/kg, C max
  Cmax: 12100 ± 2020 ng/mL
[1]; male, Sprague-Dawley, rat, in vivo, po, 30 mg/kg, T max
  Tmax: 3 ± 1 h
[2]
  oral bioavailability: ~97%

Reference: PMC3863468 (BioMed Research International, 2013)
